According to US20070185012A1, “Glycopeptides for the treatment of als and other metabolic and autoimmune disorders” (priority 2003, published 2007):
Where two headings read alike, the source gives them in different places. Blank lines part the entries; values can stand above or below the compound they belong to.

Experiments:
[1] = orally administered; Lyons et al 2000; cited from earlier work
ALS patients [2] = experiment: Case reports of single ALS patients treated with glycopeptide (Examples 1-6)
[3] = in vivo; cited from earlier work
[4] = Bioavailability, nasal versus oral administration; settings: administered via the nasal route, compared with oral
mice = settings: cited from earlier work
ALS patients [5] = experiment: Twenty five ALS patients given aqueous intranasal spray of GMDP-A (Example 7); format: in vivo, human; settings: 0.31 mg GMDP-A aqueous intranasal spray
[6] = Example 2: after 5 months of GMDP then GMDP-A
[7] = Example 5: GMDP-A intranasal spray 3 months

Compound: CC(=O)NC1C(OC2C(CO)OC(O)C(NC(C)=O)C2OC(C)C(=O)NC(C)C(=O)NC(CCC(=O)O)C(N)=O)OC(CO)C(O)C1O [GMDP, N-acetyl-D-glucosaminyl-(β1-4)-N-acetylmuramyl-L-alanylD-isoglutamine]
bioavailability [1]: low bioavailability
voluntary motor function (ALS patients [2]; Example 1: 3 months, semi-weekly aqueous oral spray of GMDP): Continued voluntary motor improvement
pulsox after removal of the oxygen (ALS patients [2]; Example 1: 14 hours after first 6 mg GMDP dose, ambient air (82% before therapy), no respiratory distress): 99%
speech (ALS patients [2]; Example 1: after fourth day of 6 mg GMDP, first time in 18 months): began to speak soft-spoken words
voluntary movement (ALS patients [2]; Example 1: day three, 6 mg GMDP aqueous oral spray): able to move all fingers on both hands excluding their thumbs
time until small fingers responded to voluntary challenge (ALS patients [2]; Example 1: day two, additional 6 mg GMDP aqueous oral spray): ≤ 2 h
pulsox (ALS patients [2]; Example 1: person, final stage bulbar onset ALS, on pure oxygen (94% before), 6 mg GMDP aqueous oral spray plus 400 mg luteolin/400 mg rutin four times a day, within 24 hours): 99%-100%
time of peak improvement of voice and energy (ALS patients [2]; Example 2: 10 mg GMDP aqueous oral spray): one
ALS progression (ALS patients [2]; [6]): no progression
time to dramatic improvement of voice and energy (ALS patients [2]; Example 2: person, bulbar onset ALS, on 2000 mg luteolin and 2000 mg rutin per day, 10 mg GMDP aqueous oral spray): ≤ 40 min
time to substantial improvement in leg strength and fasciculations (ALS patients [2]; Example 3: 1.51 mg GMDP intranasally per day, on luteolin/rutin): ≤ 24 h
side effect (ALS patients [2]; Example 3: GMDP taken more frequently than every 96 hours): significant joint and muscle pain
walking distance without AFO (ALS patients [2]; Example 3: after 2 weeks of daily GMDP (before: not over 15 meters with AFO)): up to 200 meters
pyrogenicity [3]: sufficiently low
bioavailability [4]: improved
LD50 (mice; acute toxicity in mice): 7000 mg/kg

Compound: CCCCCCCCCCCCCCCCCC(=O)NCCCC[C@H](NC(=O)CC[C@@H](NC(=O)[C@H](C)NC(=O)[C@@H](C)O[C@H]1[C@H](O)[C@@H](CO)OC(O)[C@@H]1NC(C)=O)C(N)=O)C(=O)O (stereo partly drawn) [muroctasin, reference compound]
LD50 (mice; mice): 625 mg/kg

bioavailability [4]: improved
Compound: N-acetyl-D-glucosaminyl-(β1-4)-N-acetylmuramyl-L-alanylD-glutamic acid [GMDP-A]
ALS progression (ALS patients [2]; [6]): no progression
fasciculations (ALS patients [2]; Example 3: 0.93 mg GMDP-A every 96 hours): major reductions
ALS progression and symptoms (ALS patients [2]; Example 3: 1.42 mg GMDP-A every 96 hours, after 4 months of therapy): abated all progression and symptoms of ALS
arm function (ALS patients [2]; Example 4: 0.942 mg intranasal spray daily): ability to comb their hair and feed themself was restored
reduction in fasciculations (ALS patients [2]; Example 4: 0.942 mg intranasal spray daily, within 2 days): 90%
ALS progression (ALS patients [2]; Example 4: for 4 months): No progression
disease progression (ALS patients [2]; [7]): no progression of disease
mobility (ALS patients [2]; [7]): ability to stand with support and walk with a walker
reduction in fasciculations (ALS patients [2]; Example 5: GMDP-A intranasal spray 3 months, 1.24/0.93/0.62/0.31/0.31 mg days one to five, 6 day cycle): 100%
ALS symptoms (ALS patients [2]; Example 6: GMDP-A intranasal spray 1.42 mg every 96 hours, 3 months): cessation of their ALS symptoms
time to reported symptom reduction and improvement (ALS patients [5]): 24 to 96 h
patients reporting dramatic reductions in symptoms (fasciculations, muscle weakness, fatigue, choking) (ALS patients [5]; of twenty five ALS patients, 1-4 months): Twenty one
